The values below come from patent US10925881B2, “Treatment of conditions associated with hyperinsulinaemia” (Tensha Therapeutics, Inc., priority 2014, dated 2021).

Read-outs that look alike come from different tables or passages of the source.

In series [1] the test system is RIN-m5F rat insulinoma cells. As to the kind of experiment: RNA-Seq expression analysis of JQ1 treated RIN-m5F insulinoma cells. The settings on record: 500 nM, 24 hr; result in words. It is filed as cell-based. As for the experimental part:
As shown below, BET inhibition disrupts both oncogenic and pancreatic islet cell transcriptional profiles.
Cells were scraped and total RNA was extracted and purified using a Qiagen RNeasy Mini Kit (cat. 74104) as described in the manufacturer's protocol. […] For each sample, 4 μg of total RNA was then used in Illumina's TruSeq RNA sample preparation V2 kit. […] Libraries were sequenced on Illumina NextSeq 500 as paired-end 75-nt reads.
Sequence reads were analyzed with the TopHat—Cufflinks software pipeline. Average size of library molecules was 400 bp, therefore the—r parameter was set to […]. (Versions were: TopHat v2.0.9, Bowtie 2.1.0.0, Cufflinks v2.1.1). The rat (rn5) gene reference GTF file was obtained from Illumina iGenomes.

A further series has as its target BRD4(2) (Homo sapiens (Human), UniProt O60885). As to the kind of experiment: Alpha-assay binding, BRD4 site 2. The settings on record: for binding activity with the BRD4 site 2: result in words.
For the next series, the target named is BRD4(1) (Homo sapiens (Human), UniProt O60885). The experiment in a line: Alpha-assay binding, BRD4 site 1. The settings on record: for binding activity with the BRD4 site 1: result in words. As for the experimental part: The binding activity of lead compounds with the BRD4 site 1 was determined by Alpha-assay with a 12-point dose response curve.
A further series concerns RIN-m. The experiment in a line: Cell Titer-Glo rat insulinoma cell assay, RIN-m. Type of series: cell-based. The method, then:
(§1) Paclitaxel was used as a positive control.
(§2) Cells were seeded at 5000 cells per well in a 96-well microculture plate in a total volume of 100 μl/well and incubated for 24 hours. […] The concentrations tested for paclitaxel were, 10 μM, 2.5 μM, 0.625 μM, 0.156 μM, 0.0391 μM, 0.00977 μM, 0.00244 μM, 0.000610 μM, 0.000153 μM, and 0.0000381 μM. Duplicate data for RIN-5F was obtained where the test concentrations for paclitaxel were, 1 μM, 0.25 μM, 0.0625 μM, 0.0156 μM, 0.00391 μM, 0.000977 μM, 0.000244 μM, 0.0000610 μM, 0.0000153 μM, and 0.00000381 μM. After 168-192 total hours of culture 100 μl of media was removed from each well and 50 μl of Cell Titer-Glo (Promega #G7571) was added to each well. The plate was shaken for 2 minutes and allowed to equilibrate for 10 minutes. Luminescence was measured on a Tecan GENios microplate reader. Percent inhibition of cell viability was calculated relative to untreated control wells. All tests were performed in triplicate or quadruplicates at each concentration level. IC50 values were calculated using Prism 6.00 curve-fitting with a four parameter-logistic equation.
(§3) Cells were seeded at 5000 cells per well in a 96-well microculture plate in a total volume of 100 μl/well and incubated for 24 hours. […] After 168-192 total hours of culture 100 μl of media was removed from each well and 50 μl of Cell Titer-Glo (Promega #G7571) was added to each well. The plate was shaken for 2 minutes and allowed to equilibrate for 10 minutes. Luminescence was measured on a Tecan GENios microplate reader. Percent inhibition of cell viability was calculated relative to untreated control wells. All tests were performed in triplicate or quadruplicates at each concentration level. IC50 values were calculated using Prism 6.00 curve-fitting with a four parameter-logistic equation.
A general note: Cellular ATP, detected with luciferase, serves as a proxy for viable cell number.

Another series has as its system RIN-14B. As to the kind of experiment: Cell Titer-Glo rat insulinoma cell assay, RIN-14B. Type of series: cell-based. The method, then: as §1, §2, §3
The next series has as its system RIN-m5F. The experiment in a line: Cell Titer-Glo rat insulinoma cell assay, RIN-m5F. It is filed as cell-based. The method, then: as §1, §2, §3
Another series concerns RIN-5F. As to the kind of experiment: Cell Titer-Glo rat insulinoma cell assay, RIN-5F. The settings on record: cell viability after 168-192 total hours of culture. Type of series: cell-based. As for the experimental part:
as §1, §2, §3

A short description of series [2]: at least one biological assay (not specified).
Series [3] concerns four rat insulinoma (RIN) cell lines, RIN-14B, RIN-m5F, RIN-m, and RIN-5. As to the kind of experiment: Cell Titer-Glo rat insulinoma cell assay, statement for all four cell lines. Type of series: cell-based. The settings on record: for cell viability at higher concentrations: cytotoxic effect; for IC50: read-out: IC50 values, all cell lines. The method, then:
as §1
(§4) The plate was shaken for 2 minutes and allowed to equilibrate for 10 minutes. Luminescence was measured on a Tecan GENios microplate reader. Percent inhibition of cell viability was calculated relative to untreated control wells. All tests were performed in triplicate or quadruplicates at each concentration level. IC50 values were calculated using Prism 6.00 curve-fitting with a four parameter-logistic equation.
as §4

For the molecule `Cc1sc2c(c1C)C(c1ccc(Cl)cc1)=NC(CC(=O)OC(C)(C)C)c1nnc(C)n1-2` (stereo not shown) [JQ1, tert-Butyl 2-(4-(4-chlorophenyl)-2,3,9-trimethyl-6H-thieno[3,2-f][1,2,4]triazolo[4,3-a][1,4]diazepin-6-yl)acetate], the “genes with decreased versus increased expression” value in series [1] is “larger number of genes with decreased expression as compared to increased expression”.

`Cc1sc2c(c1C)C(c1ccc(Cl)cc1)=N[C@@H](CC(=O)NCCN1CCOCC1)c1nnc(C)n1-2` (stereo in doubt) [(S)-JQ33]: the IC50 on BRD4(2) (12-point dose response curve, read-out: Bio-assay IC50 BRD4(2)) was 29.5 nM; at BRD4(1) (12-point dose response curve, read-out: Bio-assay IC50 BRD4(1)), 85 nM. The “binding activity with the BRD4 site 2” value at BRD4(2) was “excellent binding activity”. The “binding activity with the BRD4 site 1” value on BRD4(1) was “excellent binding activity”.

For the molecule `CC(=O)O[C@H]1C(=O)[C@@]2(C)[C@H]([C@H](OC(=O)c3ccccc3)[C@]3(O)C[C@H](OC(=O)[C@H](O)[C@@H](NC(=O)c4ccccc4)c4ccccc4)C(C)=C1C3(C)C)[C@]1(OC(C)=O)CO[C@@H]1C[C@@H]2O` [Paclitaxel, reference compound], the IC50 turned out to be 0.718 nM in the series with RIN-m (Example 3, Table 1, cell viability after 168-192 total hours of culture, read-out: IC50 Values, RIN-m); 1.33 nM with RIN-14B (Example 3, Table 1, cell viability after 168-192 total hours of culture, read-out: IC50 Values, RIN-14B); 0.43 nM with RIN-m5F (Example 3, Table 1, cell viability after 168-192 total hours of culture, read-out: IC50 Values, RIN-m5F); 3.14 nM in the series with RIN-5F (Example 3, Table 1, duplicate data, read-out: IC50 Values, RIN-5F); 1.63 nM in the series on RIN-5F (Rattus norvegicus, Example 3, Table 1, duplicate data, read-out: IC50 Values, RIN-5F).

Consider `Cc1sc2c(c1C)C(c1ccc(Cl)cc1)=NC(CC(=O)NN)c1nnc(C)n1-2` (stereo not shown) [Compound 3], for which the “activity in at least one biological assay” value in series [2] was “showed activity”.

For `Cc1sc2c(c1C)C(c1ccc(Cl)cc1)=N[C@@H](CC(=O)NCCCN1CCN(C)CC1)c1nnc(C)n1-2` (stereo in doubt) [(S)-JQ35], the IC50 with RIN-m (Example 8 additional data, cell viability after 168-192 total hours of culture, read-out: IC50 Values, RIN-m) was 151 nM; in series [3] (Rattus norvegicus, RIN-m5F, Example 8), below 200 nM; in the series on RIN-14B (Example 8 additional data, cell viability after 168-192 total hours of culture, read-out: IC50 Values, RIN-14B) it was 207 nM; in the series with RIN-m5F (Example 8 additional data, cell viability after 168-192 total hours of culture, read-out: IC50 Values, RIN-m5F) it was 188 nM; in the series with RIN-5F (Example 8 additional data, two values, read-out: IC50 Values, RIN-5F) it was 215 nM; with RIN-5F (Rattus norvegicus, Example 8 additional data, two values, read-out: IC50 Values, RIN-5F), 183 nM. The “cell viability at higher concentrations” value in series [3] (Example 8) is given as around 0%. Moreover, the “binding activity with the BRD4 site 2” value at BRD4(2) is “excellent binding activity”. Besides, on BRD4(1), the “binding activity with the BRD4 site 1” value is recorded as “excellent binding activity”.

Regarding `Cc1sc2c(c1C)C(c1ccc(Cl)cc1)=N[C@@H](CC(=O)N/N=C/c1ncc[nH]1)c1nnc(C)n1-2` [(S)-JQ6], on BRD4(2), the “binding activity with the BRD4 site 2” value is “excellent binding activity”. Besides, the “binding activity with the BRD4 site 1” value on BRD4(1) is reported as “excellent binding activity”.

Take `Cc1sc2c(c1C)C(c1ccc(Cl)cc1)=N[C@@H](CC(=O)OC(C)(C)C)c1nnc(C)n1-2` [(S)-JQ1, (S)-tert-Butyl 2-(4-(4-chlorophenyl)-2,3,9-trimethyl-6H-thieno[3,2-f][1,2,4]triazolo [4,3-a][1,4]diazepin-6-yl)acetate]: the IC50 was 34 nM in the series on RIN-m (read-out: IC50 Values, RIN-m, Example 3, Table 1, cell viability after 168-192 total hours of culture); 29.3 nM in the series on RIN-m (read-out: IC50 Values, RIN-m, Example 8 additional data, cell viability after 168-192 total hours of culture); below 100 nM in series [3] (Rattus norvegicus, RIN-m5F); below 100 nM in series [3] (Example 8); 17 nM in the series on RIN-14B (read-out: IC50 Values, RIN-14B, Example 3, Table 1, cell viability after 168-192 total hours of culture); 20.7 nM in the series on RIN-14B (read-out: IC50 Values, RIN-14B, Example 8 additional data, cell viability after 168-192 total hours of culture). Besides, the IC50 came to 31 nM in the series with RIN-m5F (read-out: IC50 Values, RIN-m5F, Example 3, Table 1, cell viability after 168-192 total hours of culture); 51 nM in the series on RIN-m5F (read-out: IC50 Values, RIN-m5F, Example 8 additional data, cell viability after 168-192 total hours of culture); 96 nM in the series with RIN-5F (Rattus norvegicus, read-out: IC50 Values, RIN-5F, Example 3, Table 1, duplicate data); 52 nM in the series with RIN-5F (Rattus norvegicus, read-out: IC50 Values, RIN-5F, Example 8 additional data, two values); 61 nM in the series on RIN-5F (read-out: IC50 Values, RIN-5F, Example 3, Table 1, duplicate data); 73.1 nM in the series with RIN-5F (read-out: IC50 Values, RIN-5F, Example 8 additional data, two values). In addition, the “cell viability at higher concentrations” value in [3] (Example 3) and in series [3] (Example 8) was around 0% throughout.

Turning to `Cc1sc2c(c1C)C(c1ccc(Cl)cc1)=N[C@@H](CC(=O)NCCc1cnc[nH]1)c1nnc(C)n1-2` [(S)-JQ8], the “binding activity with the BRD4 site 2” value at BRD4(2) is recorded as “excellent binding activity”. The “binding activity with the BRD4 site 1” value on BRD4(1) is recorded as “excellent binding activity”.

Consider `Cc1sc2c(c1C)C(c1ccc(Cl)cc1)=N[C@@H](CC(=O)NCCN1CCN(C)CC1)c1nnc(C)n1-2` [(S)-JQ13], for which the “binding activity with the BRD4 site 2” value on BRD4(2) is given as “excellent binding activity”. Besides, the “binding activity with the BRD4 site 1” value at BRD4(1) was “excellent binding activity”.

As a reminder, the IC50 is the concentration at which inhibition is half-maximal. One may read the cell viability as a read-out of living cells in per cent, often relative to untreated cells. Low values mean a greater loss of cells, high ones better survival.
